This passage reports EC50 and inhibition results from patent US12421205B2, “GLP-1 receptor agonist” (HYUNDAI PHARM CO., LTD., priority 2019, dated 2025).

The target in data set [1] is T1, human GLP-1 receptor (Homo sapiens, UniProt P43220).
T1 construct: host or cells: CHO-K1
The data set is described as follows: cAMP activity test (cAMP dynamic HTRF kit) in CHO-K1/GLP-1 receptor-expressing cells. Particulars: cAMP activity, CHO-K1/GLP-1 receptor-expressing cells; read-out: EC50. It counts as cell-based. In outline: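 Cells in HBSS with 0.1% BSA, 0.5 mM IBMX and 5 mM HEPES, then lysed; cAMP-d2 and anti-cAMP cryptate added for 3 h. HTRF read-out, where FRET signal is inversely proportional to intracellular cAMP.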
(In TR-FRET formats the signal depends on donor and acceptor labels being close together.)

Data set [2] concerns the target T2, hERG (Homo sapiens, UniProt Q12809).
T2 construct: purchased Invitrogen PV5365
The data set is described as follows: hERG inhibition test (Predictor hERG Fluorescence Polarization assay kit). It counts as binding. Conditions: probe kit Tracer (fluorescent hERG ligand), hERG % inhibition at 10 uM, relative to E-4031 and solvent control. In outline:
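Competitive fluorescence-polarization binding of fluorescent tracer to hERG membrane preparation, 2.5 h at room temperature, mP read at 531/579 nm. % inhibition at 10 uM test compound, scaled between solvent control (0%) and E-4031 (100%).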

T1 sequence (P43220 24-463): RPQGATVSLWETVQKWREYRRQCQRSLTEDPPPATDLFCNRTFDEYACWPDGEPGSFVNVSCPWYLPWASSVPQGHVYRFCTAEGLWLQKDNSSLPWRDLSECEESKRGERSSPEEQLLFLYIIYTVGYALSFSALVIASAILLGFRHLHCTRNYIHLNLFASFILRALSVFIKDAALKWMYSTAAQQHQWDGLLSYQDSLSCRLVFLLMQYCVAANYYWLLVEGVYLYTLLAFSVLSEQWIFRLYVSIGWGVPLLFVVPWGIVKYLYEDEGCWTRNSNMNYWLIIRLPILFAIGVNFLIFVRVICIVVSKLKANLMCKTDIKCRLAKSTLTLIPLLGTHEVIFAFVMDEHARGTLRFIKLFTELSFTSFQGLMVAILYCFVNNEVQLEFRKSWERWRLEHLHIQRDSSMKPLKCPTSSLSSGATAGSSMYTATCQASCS
T2 sequence (Q12809 whole entry): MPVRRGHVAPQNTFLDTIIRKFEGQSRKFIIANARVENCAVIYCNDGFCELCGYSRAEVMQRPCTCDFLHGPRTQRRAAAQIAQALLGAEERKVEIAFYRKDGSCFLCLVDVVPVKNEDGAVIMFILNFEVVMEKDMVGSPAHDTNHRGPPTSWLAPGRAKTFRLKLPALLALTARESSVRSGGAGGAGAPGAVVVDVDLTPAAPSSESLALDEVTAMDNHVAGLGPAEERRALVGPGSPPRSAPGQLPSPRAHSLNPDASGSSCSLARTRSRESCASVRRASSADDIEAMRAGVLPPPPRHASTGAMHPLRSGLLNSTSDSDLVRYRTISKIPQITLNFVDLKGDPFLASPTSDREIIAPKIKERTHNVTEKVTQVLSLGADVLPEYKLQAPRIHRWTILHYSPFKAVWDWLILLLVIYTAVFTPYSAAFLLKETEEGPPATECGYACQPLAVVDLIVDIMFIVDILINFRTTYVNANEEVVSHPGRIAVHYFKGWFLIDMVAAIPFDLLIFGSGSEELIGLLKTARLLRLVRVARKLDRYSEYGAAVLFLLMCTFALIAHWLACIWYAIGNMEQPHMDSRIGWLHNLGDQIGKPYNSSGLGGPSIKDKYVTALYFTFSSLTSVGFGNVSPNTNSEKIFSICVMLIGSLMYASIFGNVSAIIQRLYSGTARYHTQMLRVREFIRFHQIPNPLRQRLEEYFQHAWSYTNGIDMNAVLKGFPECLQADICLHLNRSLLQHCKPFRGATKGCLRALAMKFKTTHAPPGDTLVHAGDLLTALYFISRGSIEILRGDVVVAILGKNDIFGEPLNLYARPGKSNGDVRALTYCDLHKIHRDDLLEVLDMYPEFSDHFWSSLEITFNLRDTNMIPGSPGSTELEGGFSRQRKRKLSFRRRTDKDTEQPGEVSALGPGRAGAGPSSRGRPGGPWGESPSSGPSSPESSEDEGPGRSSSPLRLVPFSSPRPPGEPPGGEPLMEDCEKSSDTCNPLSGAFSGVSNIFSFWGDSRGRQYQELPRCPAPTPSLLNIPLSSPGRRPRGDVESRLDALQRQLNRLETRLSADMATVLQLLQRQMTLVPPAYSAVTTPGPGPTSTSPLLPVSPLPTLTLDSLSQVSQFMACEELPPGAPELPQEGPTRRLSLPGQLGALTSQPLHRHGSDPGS

Take `COCCn1c(Cc2ccc(-c3cccc(OCc4ccc(Cl)cc4F)n3)cc2F)nc2ccc(C(=O)O)cc21` [Example 3, 2-(4-(6-(4-chloro-2-fluorobenzyloxy)pyridin-2-yl)-2-fluorobenzyl)-1-(2-methoxyethyl)-1H-benzo[d]imidazole-6-carboxylic acid]: the half-maximal effective concentration (EC50) (commonly the concentration at which the effect is half-maximal) in data set [1] came to 32 nM. The inhibition (in general, the relative decrease from the control value, in per cent) at 2.5 h, 10 µM in data set [2] was 8.39%.

Take `O=C(O)c1ccc2nc(Cc3ccc(-c4cccc(OCc5ccc(Cl)cc5F)n4)cc3F)n(C[C@@H]3CCCO3)c2c1` [Example 59, (S)-2-(4-(6-(4-chloro-2-fluorobenzyloxy)pyridin-2-yl)-2-fluorobenzyl)-1-((tetrahydrofuran-2-yl)methyl)-1H-benzo[d]imidazole-6-carboxylic acid]: the half-maximal effective concentration (EC50) in data set [1] turned out to be 5.8 nM. In addition, the inhibition at 2.5 h, 10 µM in data set [2] was -21%.

As for `COCCn1c(Cn2ccc(-c3cccc(OCc4ccc(C#N)cc4F)c3)cc2=O)nc2ccc(C(=O)O)cc21` [Example 104, 2-((4-(3-(4-cyano-2-fluorobenzyloxy)phenyl)-2-oxopyridin-1(2H)-yl)methyl)-1-(2-methoxyethyl)-1H-benzo[d]imidazole-6-carboxylic acid], the EC50 in data set [1] stood at 240 nM. In data set [2], the inhibition at 2.5 h, 10 µM is 8.69%.

Turning to `O=C(O)c1ccc2nc(Cn3ccc(-c4cccc(OCc5ccc(Cl)cc5F)n4)cc3=O)n(CC3CCO3)c2c1` (centres unmarked) [Example 127, 2-((6-((4-chloro-2-fluorobenzyl)oxy)-2′-oxo-[2,4′-bipyridin]-1′(2′H)-yl)methyl)-1-(oxetan-2-ylmethyl)-1H-benzo[d]imidazole-6-carboxylic acid], the EC50 in data set [1] turned out to be 20 nM. Moreover, the inhibition at 2.5 h, 10 µM in data set [2] is 2.3%.

For `N#Cc1ccc(COc2cccc(-c3ccn(Cc4nc5ccc(C(=O)O)cc5n4C[C@@H]4CCO4)c(=O)c3)n2)c(F)c1` [Example 111, (S)-2-((4-(6-(4-cyano-2-fluorobenzyloxy)pyridin-2-yl)-2-oxopyridin-1(2H)-yl)methyl)-1-(oxetan-2-ylmethyl)-1H-benzo[d]imidazole-6-carboxylic acid], in data set [1], the concentration giving a half-maximal response (EC50) was found to be 20 nM. Further, in data set [2], the inhibition at 2.5 h, 10 µM is 1.32%.

Consider `O=C(O)c1ccc2nc(Cn3ccc(-c4cccc(OCc5ccc(Cl)cc5F)n4)cc3=O)n(C[C@@H]3CCO3)c2c1` [Example 110, (S)-2-((6-((4-chloro-2-fluorobenzyl)oxy)-2′-oxo-[2,4′-bipyridin]-1′(2′H)-yl)methyl)-1-(oxetan-2-ylmethyl)-1H-benzo[d]imidazole-6-carboxylic acid], for which, in data set [1], the half-maximal effective concentration (EC50) amounted to 16 nM. The inhibition at 2.5 h, 10 µM in data set [2] is 7.61%.

In the case of `O=C(O)c1ccc2nc(Cc3ccc(-c4cccc(OCc5c(F)cccc5Cl)n4)c(F)c3)n(CC3CCCO3)c2c1` (centres unmarked) [Example 101, 2-(4-(6-(2-chloro-6-fluorobenzyloxy)pyridin-2-yl)-3-fluorobenzyl)-1-((tetrahydrofuran-2-yl)methyl)-1H-benzo[d]imidazole-6-carboxylic acid], the EC50 in data set [1] came to 320 nM. In data set [2], the inhibition at 2.5 h, 10 µM is -2.37%.
